Data as given in patent US5135847A, “Substrate composition for alkaline phosphatase and method for assay using same” (Becton, Dickinson and Company, priority 1988, dated 1992).

Experiments:
[1] = tested on: AP from several mammalian tissue types; conditions: cited from earlier work
[2] = tested on: AP from the intestine; conditions: intestinal versus nonintestinal AP; cited from earlier work
[3] = pH 7.9 versus pH 2; cited from earlier work
[4] = tested on: bovine liver alkaline phosphatase; assay: Accelerated stability in various pH 9.8 buffers at 45° C.; functional inhibitor measured by inhibition of bovine liver alkaline phosphatase; type: physicochemical; conditions: for Percent of Functional Levamisole Remaining: 45° C., Day 0
Protocol: Various buffers were prepared at 100 mM concentrations, containing 1 mM magnesium chloride, and adjusted to pH 9.8. […] (accelerated decomposition study). […] Bovine liver AP was added and the reaction kinetics were followed at 405 nm.

[5] = tested on: bovine liver alkaline phosphatase; assay: Potency as alkaline phosphatase inhibitor relative to levamisole; type: biochemical

Row | more potent than levamisole [5] | Percent of Functional Levamisole Remaining ([4]; AMP buffer, pH 9.8, 0.1 mM p-bromolevamisole) | Percent of Functional Levamisole Remaining ([4]; AMPD buffer, pH 9.8, 0.1 mM p-bromolevamisole) | Percent of Functional Levamisole Remaining ([4]; Carbonate buffer, pH 9.8, 0.1 mM p-bromolevamisole) | Percent of Functional Levamisole Remaining ([4]; Diethanolamine buffer, pH 9.8, 0.1 mM p-bromolevamisole) | Percent of Functional Levamisole Remaining ([4]; Glycine buffer, pH 9.8, 0.1 mM p-bromolevamisole) | Percent of Functional Levamisole Remaining ([4]; Triethanolamine buffer, pH 9.8, 0.1 mM p-bromolevamisole) | decomposition compared with the parent compound (levamisole) ([4]; pH 9.8, 45° C.) | SMILES | inhibition of AP from several mammalian tissue types [1] | less potent toward AP from the intestine than toward AP from several mammalian tissue types [2] | decomposed faster at pH 7.9 than at pH 2 [3] | Percent of Functional Levamisole Remaining ([4]; AMP buffer 100 mM, 1 mM magnesium chloride, pH 9.8, 1 mM levamisole) | Percent of Functional Levamisole Remaining ([4]; AMPD buffer 100 mM, 1 mM magnesium chloride, pH 9.8, 1 mM levamisole) | Percent of Functional Levamisole Remaining ([4]; Carbonate buffer 100 mM, 1 mM magnesium chloride, pH 9.8, 1 mM levamisole) | Percent of Functional Levamisole Remaining ([4]; Diethanolamine buffer 100 mM, 1 mM magnesium chloride, pH 9.8, 1 mM levamisole) | Percent of Functional Levamisole Remaining ([4]; Glycine buffer 100 mM, 1 mM magnesium chloride, pH 9.8, 1 mM levamisole) | Percent of Functional Levamisole Remaining ([4]; Triethanolamine buffer 100 mM, 1 mM magnesium chloride, pH 9.8, 1 mM levamisole) | stability in AMPD and particularly in AMP compared with other buffers ([4]; pH 9.8, 45° C.)
1 | – | – | – | – | – | – | – | – | c1ccc([C@H]2CN3CCSC3=N2)cc1 [levamisole, (-)2,3,5,6-tetrahydro-6-phenylimidazo[1,2-b]thiazole] | potent inhibitor | approximately 100 fold | 70 times | 100% | 100% | 100% | 100% | 100% | 100% | substantially greater
2 | approximately 10 fold | 100% | 100% | 100% | 100% | 100% | 100% | quite a bit faster | Brc1ccc([C@H]2CN3CCSC3=N2)cc1 [p-bromolevamisole] | – | – | – | – | – | – | – | – | – | –
